± gives the expanded uncertainty stated by the source.
Legend:
[1] = Molar enthalpy of transition or fusion; details: Crystal; DSC
[2] = Crystal; DTA

NC(=O)CN1CC(O)CC1=O (configuration not stated) [4-hydroxy-2-oxo-1-pyrrolidineacetamide]
Molar enthalpy of transition or fusion [1]: 8.29 ± 0.335 kcal/mol
Normal melting temperature [2]: 172.13 ± 0.61 °C

Source: the NIST ThermoML archive (doi:10.1016/j.jct.2015.11.007)
